Results taken from article PMC7377239, “Cardiovascular Effects of Polychlorinated Biphenyls and Their Major Metabolites” (Environmental Health Perspectives, 2020).
Like-named read-outs stand apart in the source and are kept apart here.

Legend:
[1] = system: iCell endothelial cells (human iPSC-derived ECs); test: High-content imaging cytotoxicity in iCell endothelial cells, 24 h; type: cell-based; conditions: Homo sapiens, Endothelial cell, iPSC-EC, 24 hr; for viability at 0.1 µM / activity at 0.1 µM: 0.10 µM; for minimal effective concentration: top concentration 100.00 µM
Summary of the method: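 Readouts were vehicle-normalised and fitted to a four-parameter logistic model. POD was set at one SD beyond 0.5% DMSO control means, and 100 µM was assigned when no response was seen. Cells were monolayers of iCell endothelial cells imaged after 24 h compound exposure using nuclear, mitochondrial and calcein dyes.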

HUVECs = test: High-content imaging cytotoxicity in HUVECs, 24 h; type: cell-based, human; conditions: Homo sapiens, HUVEC, 24 h, HUVECs; for viability at 0.01 µM / activity at 0.01 µM / viability at 0.1 µM / activity at 0.1 µM / viability at 1 µM / activity at 1 µM / viability at 10 µM / activity at 10 µM / viability at 100 µM / activity at 100 µM: 0.00 µM = 100.00; for viability at 0.1 µM / activity at 0.1 µM: 0.10 µM; for minimal effective concentration: top concentration 100.00 µM
Summary of the method: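 Confluent HUVEC monolayers, passages 1–5, received test chemicals for 24 h. Cytotoxicity was scored from triple-stain high-content images, with PODs defined by a one-SD deviation from 0.5% DMSO vehicle controls.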

[2] = 0.00 µM control = 100.00, read-out: endo.cyto.24hr
[3] = 0.00 µM control = 100.00, read-out: endo.mito.24hr
[4] = 0.00 µM control = 100.00, read-out: endo.mitoint.24hr
[5] = 0.00 µM control = 100.00, read-out: endo.nma.24hr
[6] = 0.00 µM control = 100.00, read-out: endo.tc.24hrs
[7] = 24 hr, read-out: huvec.cyto.24hr
[8] = 24 hr, read-out: huvec.mito.24hr
[9] = 24 hr, read-out: huvec.mitoint.24hr
[10] = 24 hr, read-out: huvec.nma.24hr
[11] = 24 hrs, read-out: huvec.tc.24hrs

SMILES: COc1ccc(-c2ccc(Cl)cc2)cc1 [4'-OMe PCB3]
- viability at 0.01 µM [1, 2]: 93.4%
- activity at 0.01 µM [1, 3]: 93.4%
- activity at 0.01 µM [1, 4]: 107%
- activity at 0.01 µM [1, 5]: 105%
- viability at 0.01 µM [1, 6]: 93.4%
- viability at 0.1 µM [1, 2]: 103%
- activity at 0.1 µM [1, 3]: 103%
- activity at 0.1 µM [1, 4]: 99.7%
- activity at 0.1 µM [1, 5]: 98.5%
- viability at 0.1 µM [1, 6]: 103%
- viability at 1 µM [1, 2]: 95.6%
- activity at 1 µM [1, 3]: 96%
- activity at 1 µM [1, 4]: 102%
- activity at 1 µM [1, 5]: 102%
- viability at 1 µM [1, 6]: 95.6%
- viability at 10 µM [1, 2]: 108%
- activity at 10 µM [1, 3]: 109%
- activity at 10 µM [1, 4]: 107%
- activity at 10 µM [1, 5]: 95%
- viability at 10 µM [1, 6]: 108%
- viability at 100 µM [1, 2]: 93.3%
- activity at 100 µM [1, 3]: 93.7%
- activity at 100 µM [1, 4]: 119%
- activity at 100 µM [1, 5]: 99.7%
- viability at 100 µM [1, 6]: 93.5%
- minimal effective concentration ([1]; read-out: endo.cyto.24hr POD): 100 µM
- minimal effective concentration ([1]; read-out: endo.mito.24hr POD): 100 µM
- minimal effective concentration ([1]; read-out: endo.mitoint.24hr POD): 20.5 µM
- minimal effective concentration ([1]; read-out: endo.nma.24hr POD): 100 µM
- minimal effective concentration ([1]; read-out: endo.tc.24hrs POD): 100 µM
- viability at 0.01 µM (HUVECs; [7]): 87.9%
- activity at 0.01 µM (HUVECs; [8]): 86.7%
- activity at 0.01 µM (HUVECs; [9]): 91.6%
- activity at 0.01 µM (HUVECs; [10]): 101%
- viability at 0.1 µM (HUVECs; [7]): 99.3%
- activity at 0.1 µM (HUVECs; [8]): 98.5%
- activity at 0.1 µM (HUVECs; [9]): 97.3%
- activity at 0.1 µM (HUVECs; [10]): 98.2%
- viability at 1 µM (HUVECs; [7]): 94.1%
- activity at 1 µM (HUVECs; [8]): 93.8%
- activity at 1 µM (HUVECs; [9]): 91%
- activity at 1 µM (HUVECs; [10]): 96.4%
- viability at 10 µM (HUVECs; [7]): 94.1%
- activity at 10 µM (HUVECs; [8]): 92.9%
- activity at 10 µM (HUVECs; [9]): 94%
- activity at 10 µM (HUVECs; [10]): 92.3%
- viability at 100 µM (HUVECs; [7]): 70.2%
- activity at 100 µM (HUVECs; [8]): 70.1%
- activity at 100 µM (HUVECs; [10]): 73.7%
- minimal effective concentration (HUVECs; 24 hr, read-out: huvec.cyto.24hr POD): 8.6 µM
- minimal effective concentration (HUVECs; 24 hr, read-out: huvec.mito.24hr POD): 5.97 µM
- minimal effective concentration (HUVECs; 24 hr, read-out: huvec.mitoint.24hr POD): 32 µM
- minimal effective concentration (HUVECs; 24 hr, read-out: huvec.nma.24hr POD): 1.41 µM
- viability at 0.01 µM (HUVECs; [11]): 87.9%
- viability at 0.1 µM (HUVECs; [11]): 99.3%
- viability at 1 µM (HUVECs; [11]): 94.1%
- viability at 10 µM (HUVECs; [11]): 94.1%
- viability at 100 µM (HUVECs; [11]): 70.2%
- minimal effective concentration (HUVECs; 24 hrs, read-out: huvec.tc.24hrs POD): 8.6 µM
